Data set [1] has as its system chronic subdural hematoma. The note with it: for Hematoma amount in the fourth week, average value: treatment for one month, conservatively successful patients.
Data set [2] concerns VEGF, TGF-β, MMP-9 and Ang-1/2. The note with it: small dose of atorvastatin, recent animal experiments; cited from earlier work.
The subject of data set [3] is VEGF, TGF-β, MMP-9 and Ang-1/2. In words: Rat subdural hematoma model: factor expression in hematoma capsule/cavity (real-time PCR, ELISA). The data set is classed as in vivo. The source says:
In FIG. 1 to FIG. 9, “#” denotes a statistically significant difference in the small-dose group and the large-dose group as compared with the control group; and “*” denotes a statistically significant difference between the small-dose group and the large-dose group.

[4] abbreviates: large-dose 5 mg/kg/day, 28 rats.
The mark [5] stands for this setting: small-dose 3 mg/kg/day, 30 rats.
[6] abbreviates: large-dose group 8 mg/kg/day oral, 2 days.
[7] abbreviates: large-dose group 8 mg/kg/day, 7 days after the operation.
[8] abbreviates: small-dose group 3 mg/kg/day oral, 2 days.
Setting [9] is: small-dose group 3 mg/kg/day, 7 days after the operation, vs control and large-dose group.

Values joined by “and” are separate entries in the source; they are usually repeats but may differ in a detail not shown here. Equal entries are not always repeated. Where two headings read alike, the source gives them in different places.

As to `C[C@@H]1C[C@H]2[C@@H]3CCC4=CC(=O)C=C[C@]4(C)[C@@]3(F)[C@@H](O)C[C@]2(C)[C@@]1(O)C(=O)CO` [dexamethasone], in data set [1] (small dose dexamethasone alone), the “Reduced hematoma amount in the fourth week, average value” came out at 24.71 mL; the “Hematoma amount in the fourth week, average value” was 50.86 ± 24.52 mL and 50.86 mL. Moreover, in data set [1] (small dose dexamethasone alone, among the 15 patients), the “patients with no therapeutic effect, transferred to surgical treatment” value turned out to be 5 patients. Further, in data set [1] (small dose dexamethasone alone, fourth week / one month after administration), the “average hematoma absorption rate” value was 35%. Further, the “Hematoma amount in the fourth week” value in data set [1] (small dose dexamethasone alone, oral, 0.75 mg 3x/day wk 1, 2x/day wk 2-3, 1x/day wk 4, individual patients (15)) is 40.95 ml and 80.00 ml (2×) and 36.30 ml and 32.73 ml and 96.53 ml and 39.88 ml and 30.25 ml and 35.00 ml and 37.00 ml. Besides, the “Reduced hematoma amount in the fourth week” value in data set [1] (small dose dexamethasone alone, individual patients (15)) is 20.93 mL and 25.00 mL and 39.64 mL and 23.90 mL and 8.13 mL and 38.43 mL and 24.08 mL and 36.40 mL and 13.60 mL and 17.00 mL.
For the compound `CC(C)c1c(C(=O)Nc2ccccc2)c(-c2ccccc2)c(-c2ccc(F)cc2)n1CC[C@@H](O)C[C@@H](O)CC(=O)O` [atorvastatin], in the data set on subcutaneous hematoma (setting [4]), the Injury infection is listed as 4 and the “Rats died in the treatment” value turned out to be 7. For the same compound, the death rate entry in the data set on subcutaneous hematoma (large-dose group compared with small-dose atorvastatin group) is “significantly improved”. The hormone-caused complications result with subcutaneous hematoma (rat, in vivo) is on record as “significantly increased”. The Poor condition in the data set with subcutaneous hematoma (rat, in vivo, 3 mg/kg/day) is 3. Also, the Poor condition in the data set on subcutaneous hematoma (rat, in vivo, 5 mg/kg/day) came to 6. Further, in the data set with subcutaneous hematoma (setting [5]), the Injury infection was found to be 1 and the “Rats died in the treatment” value was determined as 2. In addition, in data set [2], the “local TNF-α and IL-6 gene and protein levels in the hematoma capsule” value is “significantly reduce”. Further, in data set [3] (setting [6]), the “expression of MMP-9” value was “significantly higher”, the “expression of TGFβ” value is listed as “significantly higher” and the “expression of VEGF” value is reported as “significantly higher”. Further, in data set [3] (setting [7]), the “expression of Ang2” value is “high expressions”, the “expression of MMP-9” value is “high expressions”, the “expression of TGF-β” value was “high expressions” and the “expression of VEGF” value is “high expressions”. Moreover, in data set [3] (setting [8]), the “mRNA expression of hematoma capsule Ang1” value is recorded as “significantly higher” and the “mRNA expression of hematoma capsule VEGF” value was “significantly higher”. In data set [3] (setting [9]), the Ang1 result is reported as “significantly higher”, the “expression level of MMP-9” value is “significantly lower” and the “expression level of VEGF” value is recorded as “significantly lower”. In addition, in data set [1] (atorvastatin alone), the “Hematoma amount in the fourth week, average value” was 28.29 ± 29.47 mL and 28.29 mL.
